Measured values as given in the supplement of paper PMC10307832.

Columns and labels:
Experiment in all cases: relative viability (nuclei count vs DMSO), 5 days (fraction); higher = more cells survive
[1] = compound: CC1=C(C(=O)N2C=CSC2=N1)CCN3CCC(=C(C4=CC=CC=C4)C5=CC=C(C=C5)F)CC3 + CC(C)C[C@H](NC(=O)[C@H](Cc1ccccc1)NC(=O)c1cnccn1)B(O)O [Bortezomib] (partner 0.002 µM)
Outline: (§1)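 Lung cancer cell lines were seeded in 1536-well plates and dosed by pin tool the next day, with either a single drug or a fixed anchor-drug dose combined with five library-drug doses (not always all listed) spaced in √10 steps. Five days later, one step fixed the cells and stained their nuclei (final 0.05% Triton X-100, 1% formaldehyde, 1 ug/ml Hoechst), and nuclei were counted on 4× images. Relative viability is the nuclei count in treated wells divided by the count in vehicle wells, and each value is the median of duplicate plates.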

[2] = compound: CC1=C(C(=O)N2C=CSC2=N1)CCN3CCC(=C(C4=CC=CC=C4)C5=CC=C(C=C5)F)CC3 + Nc1nc2[nH]cc(CCc3ccc(C(=O)N[C@@H](CCC(=O)O)C(=O)O)cc3)c2c(=O)[nH]1 [Pemetrexed] (partner 0.2 µM)
Outline: as §1

[3] = compound: CC1=C(C(=O)N2C=CSC2=N1)CCN3CCC(=C(C4=CC=CC=C4)C5=CC=C(C=C5)F)CC3 + Cc1nc(NC(=O)N2CCC[C@H]2C(N)=O)sc1-c1ccnc(C(C)(C)C(F)(F)F)c1 [Alpelisib] (partner 2 µM)
Outline: as §1

[4] = compound: CC1=C(C(=O)N2C=CSC2=N1)CCN3CCC(=C(C4=CC=CC=C4)C5=CC=C(C=C5)F)CC3 + O=C(c1cc(Cc2n[nH]c(=O)c3ccccc23)ccc1F)N1CCN(C(=O)C2CC2)CC1 [Olaparib] (partner 8 µM)
Outline: as §1

Cell Line | relative viability ([1]; first compound 0.08 µM) | relative viability ([1]; first compound 0.253 µM) | relative viability ([1]; first compound 0.8 µM) | relative viability ([1]; first compound 2.53 µM) | relative viability ([1]; first compound 8 µM) | relative viability ([2]; first compound 0.08 µM) | relative viability ([2]; first compound 0.253 µM) | relative viability ([2]; first compound 0.8 µM) | relative viability ([2]; first compound 2.53 µM) | relative viability ([2]; first compound 8 µM) | relative viability ([3]; first compound 0.08 µM) | relative viability ([3]; first compound 0.253 µM) | relative viability ([3]; first compound 0.8 µM) | relative viability ([3]; first compound 2.53 µM) | relative viability ([3]; first compound 8 µM) | relative viability ([4]; first compound 0.08 µM) | relative viability ([4]; first compound 0.253 µM) | relative viability ([4]; first compound 0.8 µM) | relative viability ([4]; first compound 2.53 µM) | relative viability ([4]; first compound 8 µM)
HCC-78 | 0.458 | 0.616 | 0.552 | 0.447 | 0.405 | 0.798 | 0.867 | 0.935 | 0.923 | 0.66 | 0.352 | 0.347 | 0.324 | 0.379 | 0.286 | 0.663 | 0.872 | 0.944 | 0.921 | 0.608
HCC-366 |  | 1.14 | 1.18 | 1.04 | 0.308 | 0.199 | 0.169 | 0.206 | 0.156 | 0.139 |  | 0.428 | 0.471 | 0.605 | 0.243 | 0.331 | 0.287 | 0.469 | 0.464 | 0.226
HCC-827 | 0.975 | 0.843 | 1.01 | 1.11 | 0.987 | 0.253 | 0.237 | 0.251 | 0.268 | 0.235 | 0.971 | 0.964 | 0.979 | 1.15 | 0.859 | 0.655 | 0.626 | 0.718 | 0.637 | 0.667
HOP-62 | 0.731 | 0.628 | 1.03 | 0.922 | 0.323 | 0.335 | 0.315 | 0.306 | 0.336 | 0.12 | 0.974 | 0.852 | 0.971 | 0.945 | 0.56 | 0.388 | 0.461 | 0.445 | 0.434 | 0.352
IA-LM | 0.621 | 0.757 | 0.711 | 0.843 | 0.63 |  |  |  |  |  | 0.554 | 0.576 | 0.845 | 0.988 | 0.465 | 0.93 | 0.926 | 0.848 | 0.709 | 0.687
LC-2-ad | 1.05 | 0.799 | 1.03 | 1.22 | 0.827 | 0.247 | 0.268 | 0.277 | 0.271 | 0.281 | 0.936 | 0.91 | 0.789 | 0.962 | 0.794 | 0.87 | 0.79 | 0.65 | 0.875 | 0.574
LK-2 |  |  |  |  |  | 0.243 | 0.286 | 0.285 | 0.281 | 0.181 | 1.24 | 1.19 | 1.23 | 1.08 | 0.773 | 0.726 | 0.728 | 0.736 | 0.756 | 0.514
NCI-H358 |  |  |  |  |  | 0.204 | 0.196 | 0.16 | 0.179 | 0.162 | 0.821 | 0.912 | 0.744 | 1.07 | 0.553 | 0.654 | 0.611 | 0.613 | 0.774 | 0.502
NCI-H522 |  |  |  |  |  | 0.958 | 0.997 | 0.964 | 0.914 | 0.764 |  |  |  |  |  | 0.622 | 0.732 | 0.647 | 0.664 | 0.513
NCI-H727 | 0.802 | 1.03 | 0.997 | 0.858 | 0.633 |  |  |  |  |  | 0.507 | 0.509 | 0.493 | 0.738 | 0.425 | 0.86 | 0.734 | 0.667 | 0.689 | 0.599
NCI-H1299 | 1.07 | 1.04 | 1.04 | 1.02 | 0.702 |  |  |  |  |  | 0.997 | 1.09 | 1.08 | 1.03 | 0.54 | 1.04 | 1.01 | 0.957 | 0.977 | 0.803
NCI-H1395 |  |  |  |  |  | 0.797 | 0.813 | 0.72 | 0.885 | 0.806 | 1.09 | 1.33 | 1.05 | 0.958 | 1.11 | 0.424 | 0.43 | 0.443 | 0.406 | 0.434
NCI-H1648 |  |  |  |  |  | 0.714 | 0.657 | 0.749 | 0.712 | 0.423 |  |  |  |  |  | 1.14 | 0.981 | 1.28 | 0.787 | 0.359
NCI-H1650 | 0.216 | 0.193 | 0.21 | 0.234 | 0.227 | 0.335 | 0.348 | 0.352 | 0.461 | 0.337 |  |  |  |  |  | 0.782 | 0.838 | 0.862 | 0.819 | 0.605
NCI-H1703 | 0.262 | 0.316 | 0.256 | 0.359 | 0.263 |  |  |  |  |  | 0.372 | 0.316 | 0.278 | 0.463 | 0.306 | 0.385 | 0.334 | 0.427 | 0.577 | 0.432
NCI-H1793 |  |  |  |  |  | 0.72 | 0.715 | 0.796 | 1.12 | 0.794 | 0.642 | 0.654 | 0.663 | 0.886 | 0.553 | 0.536 | 0.807 | 0.937 | 1.08 | 0.521
NCI-H1944 |  |  |  |  |  | 0.626 | 0.663 | 0.596 | 0.591 | 0.499 | 0.917 | 0.815 | 0.842 | 0.865 | 0.777 | 0.422 | 0.446 | 0.38 | 0.383 | 0.359
NCI-H2170 |  |  |  |  |  | 0.278 | 0.269 | 0.28 | 0.271 | 0.248 | 0.753 | 0.771 | 0.844 | 0.836 | 0.76 | 0.674 | 0.538 | 0.635 | 0.717 | 0.394
NCI-H2342 |  |  |  |  |  | 0.657 | 0.821 | 0.76 | 0.818 | 0.634 |  |  |  |  |  | 0.38 | 0.44 | 0.435 | 0.426 | 0.43
SK-MES-1 |  |  |  |  |  | 1.11 | 1.05 | 0.97 | 1.02 | 0.829 | 0.881 | 0.944 | 0.835 | 0.87 | 0.554 | 0.961 | 0.583 | 0.725 | 0.827 | 0.64
